Earlier results in patent publication US9446036B2, “Compositions of a polyorthoester and an aprotic solvent” (Heron Therapeutics, Inc., priority 2013, dated 2016).

Details: room temperature (20-25° C.)

| Water Miscibility | SMILES |
| --- | --- |
| water miscible | C[S+](C)[O-] [dimethyl sulfoxide] |
| water miscible | COC(=O)C(C)O (centres unmarked) [methyl lactate] |
| water miscible | CC1COC(=O)O1 (centres unmarked) [4-methyl-1,3-diololan-2-one] |
| poorly miscible | CCCCCCCCCCCCCC(=O)OC(C)C [isopropyl myristate] |
| water miscible | COC(C)=O [methyl acetate] |
| water miscible | CCOC(=O)C(C)O (centres unmarked) [ethyl lactate] |
| poorly miscible | CCCCCCCC/C=C\CCCCCCCC(=O)OCC [ethyl oleate] |
| poorly miscible | O=C(OCc1ccccc1)c1ccccc1 [benzyl benzoate] |
| water miscible | CN1CCCC1=O [N-methyl-2-pyrrolidone (NMP), N-methyl-2-pyrrolidone] |
| poorly miscible | O=C1CCCN1C1CCCCC1 [N-cyclohexyl-2-pyrrolidone] |
| partially miscible | CCOC(C)=O [ethyl acetate] |
| water miscible | O=C1CCCCCO1 [ester-caprolactone] |
| water miscible | CCN1CCCC1=O [n-ethyl-2-pyrrolidone] |

| SMILES | Water Miscibility |
| --- | --- |
| C1CCOC1 [tetrahydrofuran] | water miscible |
